Source: patent US10597388B2, “Pyridazinone herbicides” (FMC CORPORATION, priority 2014, dated 2020)
Read-outs that look alike come from different tables or passages of the source.

Tests used:
Format in all cases: in vivo
[1] = tested on: barnyardgrass (Echinochloa crus-galli); assay: Test A greenhouse herbicide test, pre- and postemergence; details: Echinochloa crus-galli, 240 h; for pest or weed control at 1000 g/ha: 1000 g ai/ha; for pest or weed control at 1000 g/ha / pest or weed control at 500 g/ha: 0 to 100 scale; for pest or weed control at 125 g/ha: 125 g ai/ha; for pest or weed control at 500 g/ha: 500 g ai/ha
How it was run: (§1)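 Seeds sown in loam–sand blend got a preemergence directed soil spray of compound in non-phytotoxic solvent with surfactant. Postemergence treatment was given at 2–10 cm, one- to two-leaf stage. After ~10 d in greenhouse, injury was rated visually vs untreated controls, 0 (no effect) to 100 (complete control).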

corn (Zea mays) = assay: as above; details: Zea mays, 240 h; for Corn plant response rating (crop injury, 0 = no effect, 100 = complete kill) at 125 g/ha: visual rating after approx. 10 d, 0 to 100 scale (0 no effect, 100 complete control)
How it was run: as §1

[2] = tested on: foxtail, giant (giant foxtail, Setaria faberii); assay: as above; details: Setaria faberi, 240 h; for pest or weed control at 1000 g/ha: 1000 g ai/ha; for pest or weed control at 1000 g/ha / pest or weed control at 500 g/ha: 0 to 100 scale; for pest or weed control at 125 g/ha: 125 g ai/ha; for pest or weed control at 500 g/ha: 500 g ai/ha
How it was run: as §1

[3] = tested on: pigweed (Amaranthus retroflexus); assay: as above; details: Amaranthus retroflexus, 240 h; for pest or weed control at 1000 g/ha: 1000 g ai/ha; for pest or weed control at 1000 g/ha / pest or weed control at 500 g/ha: 0 to 100 scale; for pest or weed control at 125 g/ha: 125 g ai/ha; for pest or weed control at 500 g/ha: 500 g ai/ha
How it was run: as §1

[4] = tested on: barnyardgrass (Echinochloa crus-galli); assay: Test C greenhouse herbicide test, pre- and postemergence
How it was run: (§2)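 Two application timings: at sowing into a soil/sand blend, and on 2–18 cm seedlings in peat-vermiculite potting mix. A non-phytotoxic, surfactant-containing solvent carried the compounds. Plants were compared with controls and rated visually on 0–100 after 13–15 d.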

[5] = tested on: galium (catchweed bedstraw, Galium aparine); assay: as above
How it was run: as §2

[6] = tested on: nutsedge, yellow (yellow nutsedge, Cyperus esculentus); assay: as above; details: Preemergence; for Plant response rating, Nutsedge, Yellow: scale 0 to 100, 0 is no effect, 100 is complete control
How it was run: as §2

[7] = tested on: wheat (winter wheat, Triticum aestivum); assay: as above
How it was run: as §2

[8] = tested on: ragweed (common ragweed, Ambrosia elatior); assay: Test A greenhouse herbicide test, pre- and postemergence; details: Ambrosia artemisiifolia, 240 h; for pest or weed control at 125 g/ha: 125 g ai/ha; for pest or weed control at 500 g/ha: 500 g ai/ha, 0 to 100 scale
How it was run: as §1

[9] = tested on: blackgrass (Alopecurus myosuroides); assay: Test A greenhouse herbicide test, postemergence; details: Alopecurus myosuroides, post-emergence, 240 h
How it was run: (§3)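 Plants grown in loam soil/sand blend pots were treated postemergence at 2 to 10 cm height, one- to two-leaf stage, with formulated test chemicals. After approximately 10 d in a greenhouse, injury was rated visually against untreated controls on a 0 to 100 scale (0 no effect, 100 complete control).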

[10] = tested on: galium (catchweed bedstraw, Galium aparine); assay: Test A greenhouse herbicide test, postemergence; details: Galium, post-emergence, 240 h
How it was run: as §3

[11] = post-emergence, Postemergence, 0 is no effect, 100 is complete control, read-out: Barnyardgrass plant response rating
[12] = pre-emergence, Preemergence, 0 no effect, 100 complete control, read-out: Plant response rating, Barnyardgrass
[13] = post-emergence, Postemergence, 0 is no effect, 100 is complete control, read-out: Foxtail, Giant plant response rating
[14] = pre-emergence, Preemergence, 0 no effect, 100 complete control, read-out: Plant response rating, Foxtail, Giant
[15] = post-emergence, Postemergence, 0 is no effect, 100 is complete control, read-out: Pigweed plant response rating
[16] = pre-emergence, Preemergence, 0 no effect, 100 complete control, read-out: Plant response rating, Pigweed
[17] = Postemergence, 31 g ai/ha, 0 to 100 scale (0 no effect, 100 complete control)
[18] = Postemergence, 125 g ai/ha, scale 0 to 100, 0 is no effect, 100 is complete control
[19] = Postemergence, 250 g ai/ha, scale 0 to 100, 0 no effect, 100 complete control, 13 to 15 d
[20] = Preemergence, 31 g ai/ha, scale 0 to 100, 0 is no effect, 100 is complete control
[21] = Preemergence, 62 g ai/ha, scale 0 to 100, 0 is no effect, 100 is complete control
[22] = Preemergence, 125 g ai/ha, scale 0 to 100, 0 is no effect, 100 is complete control
[23] = Preemergence, 250 g ai/ha, scale 0 to 100 (0 no effect, 100 complete control)
[24] = postemergence, 62 g ai/ha, scale 0 to 100, 0 no effect, 100 complete control
[25] = post-emergence, Postemergence, visual rating after approx. 10 d, 0 to 100 scale (0 no effect, 100 complete control), read-out: Plant response rating, Barnyardgrass
[26] = pre-emergence, Preemergence, 0 to 100 scale where 0 is no effect and 100 is complete control, read-out: Barnyardgrass plant response rating
[27] = post-emergence, Postemergence, 125 g ai/ha
[28] = post-emergence, Postemergence, 500 g ai/ha, 0 to 100 scale, 0 is no effect, 100 is complete control, read-out: Corn plant response rating
[29] = post-emergence, Postemergence, visual rating after approx. 10 d, 0 to 100 scale (0 no effect, 100 complete control), read-out: Plant response rating, Foxtail, Giant
[30] = pre-emergence, Preemergence, 0 to 100 scale where 0 is no effect and 100 is complete control, read-out: Foxtail, Giant plant response rating
[31] = post-emergence, Postemergence, visual rating after approx. 10 d, 0 to 100 scale (0 no effect, 100 complete control), read-out: Plant response rating, Pigweed
[32] = pre-emergence, Preemergence, 0 to 100 scale where 0 is no effect and 100 is complete control, read-out: Pigweed plant response rating

For Cc1ccc2sc(C)c(-c3c(O)c(C)nn(C)c3=O)c2c1 [Compound 1, 4-(2,5-dimethylbenzo[b]thien-3-yl)-5-hydroxy-2,6-dimethyl-3(2H)-pyridazinone], the pest or weed control at 1000 g/ha [1, 11] was 90%, the pest or weed control at 1000 g/ha [1, 12] was 90% and the plant injury at 1000 g/ha (corn (Zea mays); post-emergence, Postemergence, 1000 g ai/ha, 0 to 100 scale, 0 is no effect, 100 is complete control, read-out: Corn plant response rating) was 40%. The Corn plant response rating (crop injury, 0 = no effect, 100 = complete kill) at 1000 g/ha (corn (Zea mays); pre-emergence, Preemergence, 1000 g ai/ha, 0 to 100 scale, 0 no effect, 100 complete control) was 0%, the pest or weed control at 1000 g/ha [2, 13] was 80% and the pest or weed control at 1000 g/ha [2, 14] was 100%. For the same compound, the pest or weed control at 1000 g/ha [3, 15] was 100%, the pest or weed control at 1000 g/ha [3, 16] was 100% and the “Barnyardgrass plant response rating” value [4, 17] was 0. The “Plant response rating, Barnyardgrass” value [4, 18] was 5, the “Plant response rating, Barnyardgrass” value [4, 19] was 5 and the “Plant response rating, Barnyardgrass” value [4, 20] was 5. The “Plant response rating, Barnyardgrass” value [4, 21] was 5, the “Plant response rating, Barnyardgrass” value [4, 22] was 25 and the “Barnyardgrass plant response rating” value [4, 23] was 90. For the same compound, the “Barnyardgrass plant response rating” value [4, 24] was 5, the “Galium plant response rating” value [5, 17] was 90 and the “Plant response rating, Galium” value [5, 18] was 95. For the same compound, the “Plant response rating, Galium” value [5, 19] was 95, the “Plant response rating, Galium” value [5, 20] was 90 and the “Plant response rating, Galium” value [5, 21] was 100. The “Plant response rating, Galium” value [5, 22] was 95, the “Galium plant response rating” value [5, 23] was 100 and the “Galium plant response rating” value [5, 24] was 95. The “Plant response rating, Nutsedge, Yellow” value ([6]; 31 g ai/ha) was 40, the “Plant response rating, Nutsedge, Yellow” value ([6]; 62 g ai/ha) was 35 and the “Plant response rating, Nutsedge, Yellow” value ([6]; 125 g ai/ha) was 70. The “Nutsedge, Yellow plant response rating” value ([6]; 250 g ai/ha, scale 0 to 100 (0 no effect, 100 complete control)) was 75, the “Wheat plant response rating” value [7, 17] was 0 and the “Plant response rating, Wheat” value [7, 18] was 10. For the same compound, the “Plant response rating, Wheat” value [7, 19] was 15, the “Plant response rating, Wheat” value [7, 21] was 0 and the “Plant response rating, Wheat” value [7, 22] was 5. For the same compound, the “Wheat plant response rating” value [7, 23] was 20 and the “Wheat plant response rating” value [7, 24] was 0.
Compound Cc1nn(C)c(=O)c(-c2c(C)oc3c(C)cccc23)c1O [Compound 9, 4-(2,7-dimethyl-3-benzofuranyl)-5-hydroxy-2,6-dimethyl-3(2H)-pyridazinone] has a pest or weed control at 125 g/ha [1, 25] of 10%, a pest or weed control at 500 g/ha [1, 11] of 90% and a pest or weed control at 125 g/ha [1, 26] of 50%. For the same compound, the pest or weed control at 500 g/ha [1, 12] was 100%, the Corn plant response rating (crop injury, 0 = no effect, 100 = complete kill) at 125 g/ha (corn (Zea mays); [27]) was 0% and the plant injury at 500 g/ha (corn (Zea mays); [28]) was 0%. The plant injury at 125 g/ha (corn (Zea mays); pre-emergence, Preemergence, 125 g ai/ha, 0 to 100 scale where 0 is no effect and 100 is complete control, read-out: Corn plant response rating) was 0%, the Corn plant response rating (crop injury, 0 = no effect, 100 = complete kill) at 500 g/ha (corn (Zea mays); pre-emergence, Preemergence, 500 g ai/ha, 0 to 100 scale, 0 no effect, 100 complete control) was 0% and the pest or weed control at 125 g/ha [2, 29] was 10%. It also gave a pest or weed control at 500 g/ha [2, 13] of 90%, a pest or weed control at 125 g/ha [2, 30] of 70% and a pest or weed control at 500 g/ha [2, 14] of 100%. The pest or weed control at 125 g/ha [3, 31] was 0%, the pest or weed control at 500 g/ha [3, 15] was 0% and the pest or weed control at 125 g/ha [3, 32] was 0%. It also gave a pest or weed control at 500 g/ha [3, 16] of 0%.
With Cc1cc(C)c2oc(C)c(-c3c(O)c(C)nn(C)c3=O)c2c1 [Compound 12, 5-hydroxy-2,6-dimethyl-4-(2,5,7-trimethyl-3-benzofuranyl)-3(2H)-pyridazinone] the pest or weed control at 125 g/ha [1, 25] was 0%, the pest or weed control at 500 g/ha [1, 11] was 40% and the pest or weed control at 125 g/ha [1, 26] was 20%. For the same compound, the pest or weed control at 500 g/ha [1, 12] was 80%, the Corn plant response rating (crop injury, 0 = no effect, 100 = complete kill) at 125 g/ha (corn (Zea mays); [27]) was 0% and the plant injury at 500 g/ha (corn (Zea mays); [28]) was 0%. For the same compound, the pest or weed control at 125 g/ha [2, 29] was 10%, the pest or weed control at 500 g/ha [2, 13] was 70% and the pest or weed control at 125 g/ha [2, 30] was 20%. The pest or weed control at 500 g/ha [2, 14] was 90%, the pest or weed control at 125 g/ha [3, 31] was 30% and the pest or weed control at 500 g/ha [3, 15] was 50%. It also gave a pest or weed control at 125 g/ha [3, 32] of 10%, a pest or weed control at 500 g/ha [3, 16] of 60% and a pest or weed control at 125 g/ha ([8]; post-emergence, Postemergence, visual rating after approx. 10 d, 0 to 100 scale (0 no effect, 100 complete control), read-out: Plant response rating, Ragweed) of 10%. The pest or weed control at 500 g/ha ([8]; post-emergence, Postemergence, 0 is no effect, 100 is complete control, read-out: Ragweed plant response rating) was 70%, the pest or weed control at 125 g/ha ([8]; pre-emergence, Preemergence, 0 to 100 scale where 0 is no effect and 100 is complete control, read-out: Ragweed plant response rating) was 0% and the pest or weed control at 500 g/ha ([8]; pre-emergence, Preemergence, 0 no effect, 100 complete control, read-out: Plant response rating, Ragweed) was 30%. For the same compound, the pest or weed control at 125 g/ha ([9]; 125 g ai/ha, visual rating after approx. 10 d, 0 to 100 scale (0 no effect, 100 complete control), read-out: Plant response rating, Blackgrass) was 20%, the pest or weed control at 500 g/ha ([9]; 500 g ai/ha, 0 to 100 scale, 0 is no effect, 100 is complete control, read-out: Blackgrass plant response rating) was 50% and the pest or weed control at 125 g/ha ([10]; 125 g ai/ha, visual rating after approx. 10 d, 0 to 100 scale (0 no effect, 100 complete control), read-out: Plant response rating, Galium) was 60%. For the same compound, the pest or weed control at 500 g/ha ([10]; 500 g ai/ha, 0 to 100 scale, 0 is no effect, 100 is complete control, read-out: Galium plant response rating) was 90%.
